Here are results for 2 compounds from patent US20110082148A1, “TREATING, PREVENTING OR AMELIORATING A HYPERPROLIFERATIVE DISEASE/DISORDER” (priority 2009, published 2011).

Each structure is given as a SMILES string.

For data set [1], the system named is National Cancer Institute 60 cell line. Nature of the data set: National Cancer Institute 60 cell line one dose test. The data set is classed as cell-based. The settings on record: NCI 60 cell line, across many cell lines. On the procedure:
FIG. 1 illustrates a National Cancer Institute 60 cell line one dose mean graph for erdosteine. […] A National Cancer Institute 60 cell line test was performed using erdosteine. FIG. 1 illustrates the effectiveness of the erdosteine at inhibiting cancer cell growth in several cell lines. […] A National Cancer Institute 60 cell line test was performed using cinoxacin. FIG. 2 illustrates the effectiveness of the cinoxacin at inhibiting cancer cell growth in several cell lines is shown.

The subject of a further data set is HL60 xenograft. The data set is classed as in vivo. On the procedure:
FIG. 4(b) illustrates the tumor volume growth of HL60 xenograft over time after treatment with cinoxacin in dosages of 100 mg/kg and 300 mg/kg as compared to control sample.
FIGS. 4(a) and (b) show the tumor volume growth of an HL60 xenograft over time after treatment with cinoxacin in different dosages as compared to a control sample. The cinoxacin was obtained from Signma Aldrich (MOL_ID—1), and solubilized in […] and phosphate buffered saline and administered […] to test mice. […] The treatment regimen was implemented as 3 day+3 day, with an ip single injection each day. Tumor volume was measured by ruler. […] The mice were provided a single dose daily for ten consecutive days. […] It is believed that higher dosages could also be used without incurring detrimental effects.

Data set [2] concerns RPMI-8226-luc human myeloma xenografts. The data set is described as follows: RPMI-8226-luc human myeloma xenografts in NSG mice, survival. The data set is classed as in vivo, NOD scid gamma (NSG) mice. The settings on record: for survival time: controls all died before 20 days. An excerpt: FIG. 5(a) illustrates the photons/sec/cm^2×10^−6 present over time in RPMI-8226-luc human myeloma xenografts in NSG mice.
FIG. 5(b) illustrates the percentage of male and female mice survival over time when provided varying dosage amounts of cinoxacin as compared to a control sample.
FIG. 5(b) illustrates the survival percentage of male and female mice when treated with various dosages of cinoxacin for a period of 10 to 40 days. FIGS. 5(a) and (b) display that the controls all died before 20 days had passed. The females died around 25 days; however, all the males survived for 40 days when treatment was stopped. […] By the time the drug was administered, the concentration of myeloma cells in female mice had reached about 9×10^6, which appears to be beyond repair.

Data set [3] in a line: Administration to mice, adverse side effects. The data set is classed as in vivo. The note with it: from about 25 mg/kg to about 15 mg/kg. An excerpt:
However, in any given case, the amount of the compound administered will depend on such factors as the solubility of the active component, the formulation used, subject condition (such as weight), and/or the route of administration.

Consider `CCn1nc(C(=O)O)c(=O)c2cc3c(cc21)OCO3` [cinoxacin], for which the “cell growth compared with control specimen” value in data set [1] is “lower than in a control specimen”. The tumor volume increase entry in the data set on HL60 xenograft (FIG. 4(a), 100 mg/kg compared to 25 mg/kg and 50 mg/kg, 3 day+3 day, single injection each day) is recorded as “slower tumor volume increase”. In the data set with HL60 xenograft (FIG. 4(b), 100 mg/kg and 300 mg/kg vs control, single dose daily for ten consecutive days, particularly at 200 mg/kg), the “growth of Leukemic cells (tumor volume growth)” value was “substantial slowing down of the growth of Leukemic cells”. In addition, the survival time result in data set [2] (female mice treated with cinoxacin) is “around 25 days”; in data set [2] (male mice treated with cinoxacin, treatment stopped at 40 days) it was at least 40 days. Moreover, the “survival compared to female mice and controls” value in data set [2] (male mice, 1500 mg/kg/day) is reported as “survival was prolonged”. The adverse side effects entry in data set [3] is listed as “without adverse side effects”.
For `O=C(O)CSCC(=O)NC1CCSC1=O` (stereo not drawn) [erdosteine], the “cell growth compared with control specimen” value in data set [1] was “lower than in a control specimen”. Besides, in data set [3], the adverse side effects result is “without adverse side effects”.
